Measured values: US7998950B2, “Antiviral compounds” (Gilead Sciences, Inc., priority 2008, dated 2011)

tested on: HIV-IIIb; experiment: Antiviral assay in MT-2 cells infected with HIV-IIIb; assay type: cell-based; details: Human immunodeficiency virus 1, IIIB, MT2, 120 h, MT-2 cells infected with HIV-IIIb, m.o.i. 0.01, 10% FBS, 5 days at 37° C., CellTiter-Glo chemiluminescence; read-out: EC50 in MT-2 cells

SMILES | EC50 [nM]
CC(=O)N1CCn2c(=O)c(C(=O)NCCO)c(O)c3ncc(Cc4ccc(F)cc4)c1c32 [compound 43] | 982
CNC(=O)c1c(O)c2ncc(Cc3ccc(F)cc3)c3c2n(c1=O)C[C@@H](C(=O)NCC(C)(C)C#N)O3 [Example 175] | 2.4
CC(C)(C)NC(=O)C1=Cn2c(=O)c(C(=O)NCCO)c(O)c3ncc(Cc4ccc(F)cc4)c(c32)O1 [Example 139] | 2.4
CNC(=O)c1c(O)c2ncc(Cc3ccc(F)cc3)c3c2n(c1=O)C=C(C(=O)NCC(C)(C)C#N)O3 [Example 134] | 2.5
CNC(=O)c1c(O)c2ncc(Cc3ccc(F)cc3)c3c2n(c1=O)C[C@@H](CN(C)S(C)(=O)=O)O3 [Example 206] | 0.1
CNC(=O)c1c(O)c2ncc(Cc3ccc(F)cc3)c3c2n(c1=O)C=C(C(=O)N1CCOCC1(C)C)O3 [Example 107] | 25
CNC(=O)c1c(O)c2ncc(Cc3ccc(F)cc3)c3c2n(c1=O)C=C(C(=O)NC(C)(C)CN)O3 [Example 121] | 5.8
CNC(=O)c1c(O)c2ncc(Cc3ccc(F)cc3)c3c2n(c1=O)C=C(C(=O)NCC(C)(C)O)O3 [Example 140] | 3.5
O=C(NCCCN1CCCC1)c1c(O)c2ncc(Cc3ccc(F)cc3)c3c2n(c1=O)CC(CO)O3 (stereo not shown) [A-28] | 51
O=C(NCCCN1CCCC1=O)c1c(O)c2ncc(Cc3ccc(F)cc3)c3c2n(c1=O)CC(F)(F)CN3 [Example 161] | 4.2
O=C(NCCO)c1c(O)c2ncc(Cc3ccc(F)cc3)c3c2n(c1=O)CC(F)(F)CN3 [compound 79] | 7
CNC(=O)c1c(O)c2ncc(Cc3ccc(F)c(Cl)c3)c3c2n(c1=O)C[C@@H](C(=O)NC)O3 [Example 177] | 1.2
CNC(=O)c1c(O)c2ncc(Cc3ccc(F)cc3)c3c2n(c1=O)C=C(C(=O)NCC(C)(C)N)O3 [Example 123] | 35
COCCNC(=O)C1=Cn2c(=O)c(C(=O)NCCOC)c(O)c3ncc(Cc4ccc(F)cc4)c(c32)O1 [Example 114] | 6.4
CC(C)N1CCN(CCNC(=O)c2c(O)c3ncc(Cc4ccc(F)cc4)c4c3n(c2=O)CCO4)CC1 [compound 16] | 12
O=C(NCCCN1CCCC1)c1c(O)c2ncc(Cc3ccc(F)cc3)c3c2n(c1=O)CC(F)(F)CN3 [Example 151] | 23
O=C(NC1CC1)c1c(O)c2ncc(Cc3ccc(F)cc3)c3c2n(c1=O)CCN3 [compound 36] | 3.5
CNC(=O)c1c(O)c2ncc(Cc3ccc(F)cc3)c3c2n(c1=O)C=C(C(=O)NCC1(O)CC1)O3 [Example 133] | 7
O=C(NCC1(CO)CCC1)c1c(O)c2ncc(Cc3ccc(F)cc3)c3c2n(c1=O)CC(F)(F)CN3 [Example 150] | 6
Cn1cnnc1CCNC(=O)c1c(O)c2ncc(Cc3ccc(F)cc3)c3c2n(c1=O)CC(F)(F)CN3 [Example 148] | 45.6
CNC(=O)c1c(O)c2ncc(Cc3ccc(F)cc3)c3c2n(c1=O)C=C(C(=O)NCCOC)O3 [Example 113] | 5.3
CCOCCNC(=O)c1c(O)c2ncc(Cc3ccc(F)cc3)c3c2n(c1=O)CCN3 [compound 38] | 8.5
O=C(NCCN1CCOCC1)c1c(O)c2ncc(Cc3ccc(F)cc3)c3c2n(c1=O)CCN3 [compound 35] | 5.5

SMILES | EC50 [nM]
CNC(=O)c1c(O)c2ncc(Cc3ccc(F)cc3)c3c2n(c1=O)C[C@@H](CN(C)C(C)(C)C)O3 [Example 201] | 2.8
CC1(C)Cn2c(=O)c(C(=O)NCCN3CCOCC3)c(O)c3ncc(Cc4ccc(F)cc4)c1c32 [compound 60] | 400
CNC(=O)c1c(O)c2ncc(Cc3ccc(F)c(Cl)c3)c3c2n(c1=O)C=C(C(=O)NCC(C)(C)C#N)O3 [Example 118] | 0.7
CNC(=O)c1c(O)c2ncc(Cc3ccc(F)cc3)c3c2n(c1=O)C[C@@H](Cn1ccnc1C)O3 [Example 203] | 12
O=C(NCCCO)c1c(O)c2ncc(Cc3ccc(F)cc3)c3c2n(c1=O)CC(F)(F)CN3 [A-15] | 4
CNC(=O)C1=Cn2c(=O)c(C(=O)NC)c(O)c3ncc(Cc4ccc(F)cc4)c(c32)O1 [A-82] | 8
COCCNC(=O)c1c(O)c2ncc(Cc3ccc(F)cc3)c3c2n(c1=O)C=C(C(=O)N1CCOCC1(C)C)O3 [Example 108] | 7.5
CNC(=O)c1c(O)c2ncc(Cc3ccc(F)cc3)c3c2n(c1=O)C=C(C(=O)NCC(C)(C)N1CCOCC1)O3 [Example 117] | 14
CC(C)(O)CNC(=O)c1c(O)c2ncc(Cc3ccc(F)cc3)c3c2n(c1=O)CCN3 [compound 39] | 9.5
CN1CCn2c(=O)c(C(=O)NCCO)c(O)c3ncc(Cc4ccc(F)cc4)c1c32 [compound 45] | 2
CNC(=O)c1c(O)c2ncc(Cc3ccc(F)cc3)c3c2n(c1=O)CCN3 [compound 37] | 5.8
O=C(NC1CC(O)C1)c1c(O)c2ncc(Cc3ccc(F)cc3)c3c2n(c1=O)CC(F)(F)CN3 (stereo not shown) [A-18] | 7
COCCNC(=O)c1c(O)c2ncc(Cc3ccc(F)cc3)c3c2n(c1=O)CC(CO)O3 (stereo not shown) [A-27] | 4
COCCNC(=O)c1c(O)c2ncc(Cc3ccc(F)cc3)c3c2n(c1=O)C=C(C(=O)NCCN1CCCC1)O3 [Example 109] | 37.5
CNC(=O)c1c(O)c2ncc(Cc3ccc(F)cc3)c3c2n(c1=O)CC(CO)O3 (stereo not shown) [A-25] | 5.5
O=C(NCCCN1CCCC1=O)c1c(O)c2ncc(Cc3ccc(F)cc3)c3c2n(c1=O)CCN3 [compound 34] | 9.5
O=C(NCCO)c1c(O)c2ncc(Cc3ccc(F)cc3)c3c2n(c1=O)CC(CO)O3 (stereo not shown) [A-26] | 16
N#CCNC(=O)c1c(O)c2ncc(Cc3ccc(F)cc3)c3c2n(c1=O)CC(F)(F)CN3 [Example 143] | 4
CNC(=O)c1c(O)c2ncc(Cc3ccc(F)cc3)c3c2n(c1=O)C[C@H](CN(C)S(C)(=O)=O)O3 [Example 208] | 0.6
CNC(=O)C1=Cn2c(=O)c(C(=O)NCCOC)c(O)c3ncc(Cc4ccc(F)cc4)c(c32)O1 [A-87] | 3.6
CC(C)(O)CNC(=O)c1c(O)c2ncc(Cc3ccc(F)cc3)c3c2n(c1=O)CC(F)(F)CN3 [A-14] | 7
C[C@@H](CO)NC(=O)c1c(O)c2ncc(Cc3ccc(F)cc3)c3c2n(c1=O)CCCN3 [compound 51] | 4
CNC(=O)c1c(O)c2ncc(Cc3ccc(F)cc3)c3c2n(c1=O)C=C(C(=O)NCC(C)(C)NC(=O)c1nnc(C)o1)O3 [Example 122] | 64

SMILES | EC50 [nM]
N#CCCNC(=O)c1c(O)c2ncc(Cc3ccc(F)cc3)c3c2n(c1=O)CC(F)(F)CN3 [A-9] | 4
CCN(CC)C(=O)C1=Cn2c(=O)c(C(=O)NCCOC)c(O)c3ncc(Cc4ccc(F)cc4)c(c32)O1 [Example 105] | 71
CNC(=O)c1c(O)c2ncc(Cc3ccc(F)cc3)c3c2n(c1=O)C=C(C(=O)NCCOC(F)(F)F)O3 [Example 141] | 3.7
CCNC(=O)c1c(O)c2ncc(Cc3ccc(F)cc3)c3c2n(c1=O)CC(F)(F)CN3 [A-12] | 3
CNC(=O)c1c(O)c2ncc(Cc3ccc(F)cc3)c3c2n(c1=O)C=C(C(=O)NC(C)(C)C)O3 [Example 136] | 7.2
N#CCCCNC(=O)c1c(O)c2ncc(Cc3ccc(F)cc3)c3c2n(c1=O)CC(F)(F)CN3 [A-17] | 2.5
COCCNC(=O)c1c(O)c2ncc(Cc3ccc(F)cc3)c3c2n(c1=O)C=C(C(=O)N1CCN(CC(F)(F)F)CC1)O3 [Example 110] | 27.4
CNC(=O)c1c(O)c2ncc(Cc3ccc(F)cc3)c3c2n(c1=O)C[C@H](CO)O3 [A-69] | 4
CNC(=O)c1c(O)c2ncc(Cc3ccc(F)cc3)c3c2n(c1=O)C[C@@H](CNC(C)=O)O3 [Example 200] | 1.1
CNC(=O)c1c(O)c2ncc(Cc3ccc(F)cc3)c3c2n(c1=O)C=C(C(=O)NC1CC1)O3 [A-85] | 4
CNC(=O)c1c(O)c2ncc(Cc3ccc(F)cc3)c3c2n(c1=O)CC(C(=O)N(C)C)O3 (stereo not shown) [A-35] | 5.7
CNC(=O)c1c(O)c2ncc(Cc3ccc(F)cc3)c3c2n(c1=O)C=C(C(=O)NC(C)(C)CNC(=O)OC(C)(C)C)O3 [Example 120] | 19
CNC(=O)c1c(O)c2ncc(Cc3ccc(F)cc3)c3c2n(c1=O)C=C(C(=O)NCC(F)(F)F)O3 [Example 115] | 3.9
CNC(=O)c1c(O)c2ncc(Cc3ccc(F)cc3)c3c2n(c1=O)C[C@@H](CO)O3 [A-67] | 1.7
CNC(=O)c1c(O)c2ncc(Cc3ccc(F)cc3)c3c2n(c1=O)C[C@@H](CC#N)O3 [Example 181] | 1.2
CC1(C)Cn2c(=O)c(C(=O)NCCO)c(O)c3ncc(Cc4ccc(F)cc4)c1c32 [compound 59] | 85
COCCNC(=O)c1c(O)c2ncc(Cc3ccc(F)cc3)c3c2n(c1=O)CCN3 [compound 33] | 3.3
O=C(NCCO)c1c(O)c2ncc(Cc3ccc(F)cc3)c3c2n(c1=O)CCN3 [compound 30] | 7
O=C(NCC1(O)CC1)c1c(O)c2ncc(Cc3ccc(F)cc3)c3c2n(c1=O)CC(F)(F)CN3 [A-11] | 3.5
CNC(=O)C1=Cn2c(=O)c(C(=O)NCCC#N)c(O)c3ncc(Cc4ccc(F)cc4)c(c32)O1 [A-88] | 18
CNC(=O)c1c(O)c2ncc(Cc3ccc(F)cc3)c3c2n(c1=O)C[C@@H](C(N)=O)O3 [Example 168] | 12
C[C@@H]1CCCN1CCCNC(=O)c1c(O)c2ncc(Cc3ccc(F)cc3)c3c2n(c1=O)CC(F)(F)CN3 [Example 158] | 8.2

same assay, conditions: Human immunodeficiency virus 1, IIIB, MT2, 120 h, read-out: EC50 in MT-2 cells (nM)

SMILES | EC50 [nM]
CNC(=O)c1c(O)c2ncc(Cc3ccc(F)cc3)c3c2n(c1=O)C=C(C1=NC(C)(C)CO1)O3 [Example 129] | 2.2
CNC(=O)c1c(O)c2ncc(Cc3ccc(F)cc3)c3c2n(c1=O)C=C(COC)O3 [Example 137] | 5
CNC(=O)c1c(O)c2ncc(Cc3ccc(F)cc3)c3c2n(c1=O)C=C(c1nnc(C)o1)O3 [Example 130] | 4.6

same assay, conditions: MT-2 cells infected with HIV-IIIb, m.o.i. 0.01, 10% FBS, 5 days at 37° C., CellTiter-Glo chemiluminescence; read-out: EC50 in MT-2 cells

SMILES | EC50 [nM]
CCN(CC)C(=O)C1=Cn2c(=O)c(C(=O)NC)c(O)c3ncc(Cc4ccc(F)cc4)c(c32)O1 [A-91] | 10
CNC(=O)c1c(O)c2ncc(Cc3ccc(F)cc3)c3c2n(c1=O)CC(CO)(CO)O3 [A-109] | 7.1
